Source: patent US20180230143A1, “INHIBITORS OF NHR2 AND/OR RUNX1/ETO-TETRAMERIZATION” (Heinrich-Heine-Universität Düsseldorf, priority 2013, published 2018)

Assays:
Format in all cases: biochemical
RUNX1-BCR protein [1] = biological target: T1, RUNX1-BCR protein (Homo sapiens, UniProt P11274+Q01196); assay: ELISA: tetramer-dependent binding of RUNX1-BCR protein to immobilized RUNX3 oligonucleotide (selectivity control); details: for inhibition at 1000 µM / inhibition at 2000 µM: read-out: ELISA Inhibition [%] BCR; for inhibition at 2000 µM: measured at 2 mM concentration
T1 construct: replacing the NHR2 domain of the construct with the homologous BCR tetramerization domain (RUNX1-BCR protein); His6 (C); made in house; host or cells: E. coli BL21(DE3)

RUNX1-BCR protein [2] = biological target: T1, RUNX1-BCR protein; assay: ABCD (avidin, biotin, complex, DNA) assay with RUNX1-BCR protein; details: for inhibition at 1000 µM: read-out: ABCD Inhibition [%] BCR
Procedure: (§1) Oligonucleotides were annealed to the corresponding unmodified antisense oligonucleotide to generate the RUNX1 binding site. Purified RUNX1 proteins were pre-incubated with a compound for 1 h at 4° C. Similarly the biotinylated double-stranded oligonucleotides were pre-incubated with streptavidin coated magnetic beads (Dynabeads M-280 Streptavidin, Invitrogen) for 1 h at 4° C. Protein/compound samples and beads with bound oligonucleotide were incubated in binding buffer (25 mM HEPES, pH 7.5, 50 mM KCl, 1 mM EDTA, pH 8.0, 10 mM MgCl2, 5% glycerol, 1 mM DTT) in the presence of 2% IGEPAL CA-630, 1 μg of salmon sperm, and 0.1% BSA for […]. After washing three times, the bound proteins were eluted from beads in SDS-PAGE sample buffer and resolved on SDS-PAGE followed by immunoblotting with a primary anti-myc (9E10, Santa Cruz) antibody and a secondary HRP-coupled antibody (goat anti-mouse IgG-HRP, Santa Cruz).

RUNX1-NHR2 protein [3] = biological target: T2, RUNX1-NHR2 protein (Homo sapiens, UniProt Q01196+Q06455); assay: ABCD (avidin, biotin, complex, DNA) assay with RUNX1-NHR2 protein; details: for inhibition at 1000 µM: read-out: ABCD Inhibition [%] NHR2
T2 construct: the wild type NHR2 tetramerization domain or the homologous BCR tetramerization domain (highlighted) are optionally enclosed by an N-terminal RUNX1 domain; His6 (C); made in house; host or cells: E. coli BL21(DE3)
Procedure: as §1

RUNX1-NHR2 protein [4] = biological target: T2, RUNX1-NHR2 protein; assay: ELISA: tetramer-dependent binding of RUNX1-NHR2 protein to immobilized RUNX3 oligonucleotide; details: for inhibition at 1000 µM / inhibition at 2000 µM: read-out: ELISA Inhibition [%] NHR2; for IC50: inhibition of tetramerization of the RUNX1-NHR2 protein; for inhibition at 2000 µM: measured at 2 mM concentration
Procedure: Preferably, for enzyme-linked immunosorbent assays (ELISA), wells of a 96 well plate were coated with 100 ng streptavidin (Dianova) in PBS over night at 4° C. […] Binding of RUNX1-containing proteins to the R3 oligonucleotide was detected with a primary anti-myc antibody (9E10, Santa Cruz) and a secondary HRP-coupled antibody (donkey anti-mouse IgG-HRP, Santa Cruz). ELISA was developed using the Sure Blue TMB Microwell Peroxidase substrate (KLP), and the reaction was stopped with sulfuric acid (1 N). Absorption at 450 nm and 650 nm was measured with the Spectra Max 340, Molecular Devices. Preferably, the ELISA assay is as further described in the experimental section.
The inhibition of NHR2 tetramerization was measured in vitro by tetramer-dependent binding of a RUNX1-NHR2 protein construct to an immobilized oligonucleotide derived from the RUNX3 promoter sequence in ELISA and ABCD assays. […] Furthermore, the influence of the inhibitors on the viability of RUNX1/ETO-dependent SKNO-1 cells was determined; as a control RUNX1/ETO-independent U937 cells were used.
The principle of the biochemical assays for measuring inhibition of NHR2 tetramerization is illustrated in FIG. 1. NHR2 tetramerization and its inhibition was measured in a purpose-built sandwich ELISA (enzyme-linked immunosorbent assay: FIG. 1A). • i) The RUNX1-NHR2 tetramer specifically binds to the biotinylated RUNX3-oligonucleotide (RUNX3-oligo^bio) that is immobilized on a streptavidine coated surface (SA). Disrupting the RUNX1-NHR2 tetramer into dimers leads to a release of the RUNX1-NHR2 protein from the surface. Antibody-conjugated horseradish peroxidase (HRP) binds to a primary anti-myc antibody (α-myc AB) that binds to the immobilized myc-labeled RUNX1-NHR2 tetramer. HRP catalyzes the conversion of 3,3′,5,5′-tetramethylbenzidine (TMB) to 3,3′,5,5-tetramethylbenzidine diimine.
Wells of a 96 well plate were coated with 100 ng streptavidin (Dianova) in PBS over night at 4° C. […] RUNX1-containing proteins were incubated with synthetic peptides or chemical compounds in binding buffer (25 mM HEPES, pH 7.5, 50 mM KCl, 1 mM EDTA, pH 8.0, 10 mM MgCl2, 5% glycerol, 1 mM DTT) in the presence of 1 μg salmon sperm and 1% IGEPAL CA-630 for 5 h and subsequently added to the streptavidin-bound R3 oligonucleotide for 15 min on the 96 well plate. Binding of RUNX1-containing proteins to the R3 oligonucleotide was detected with a primary anti-myc antibody (9E10, Santa Cruz) and a secondary HRP-coupled antibody (donkey anti-mouse IgG-HRP, Santa Cruz). ELISA was developed using the Sure Blue TMB Microwell Peroxidase substrate (KLP), and the reaction was stopped with sulfuric acid (1 N). Absorption at 450 nm and 650 nm was measured with the Spectra Max 340, Molecular Devices.

NHR2 protein = biological target: T3, NHR2 protein (Homo sapiens, UniProt Q06455); assay: BS3 cross-linking assay of NHR2 oligomers; details: for inhibition of NHR2 tetramerization (reduction of BS3 cross-linked NHR2 oligomers): c=1100 μM
T3 construct: the wild type NHR2 tetramerization domain or the homologous BCR tetramerization domain (highlighted) are optionally enclosed by an N-terminal RUNX1 domain; His6 (C); made in house; host or cells: E. coli BL21(DE3)
T3 sequence (Q06455 334-400): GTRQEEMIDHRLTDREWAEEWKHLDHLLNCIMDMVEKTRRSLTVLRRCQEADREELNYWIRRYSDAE
Procedure: (§2) Preferably, for the cross-linking assay, purified NHR2 protein or NHR2-containing protein (5 μM) was incubated with the peptides at 4° C. for 1 h. The BS^3 (Bis[sulfosuccinimidyl] suberate) crosslink-reaction was performed at a final concentration of 1 mM for 30 min at RT. Tris-HCl (0.05 M, pH 7.4) was added to the reaction mix and incubated for 10 min to stop the reaction. Protein-oligomer nation was analyzed by western blotting. For protein detection, the membrane was incubated with a primary anti-myc antibody (9E10, Santa Cruz) and a secondary HRP-coupled antibody (goat anti-mouse IgG-HRP, Santa Cruz). Preferably, the cross-linking assay is as further described in the experimental section.
as §2, with “Purified” for “Preferably, for the cross-linking assay, purified”, “NHR2” for “NHR2 protein or NHR2-containing”, “Protein-oligomerization” for “Protein-oligomer nation”, “Cruz).” for “Cruz). Preferably, the cross-linking assay is as further described in the experimental section.”

[5] = [P1]=500 μM and [PPIM]=2000 μM in ELISA
[6] = relative inhibition at 1 mM inhibitor concentration, RUNX1-BCR
[7] = relative inhibition at 1 mM inhibitor concentration, RUNX1-NHR2 protein

T2 sequence (Q01196+Q06455 fused): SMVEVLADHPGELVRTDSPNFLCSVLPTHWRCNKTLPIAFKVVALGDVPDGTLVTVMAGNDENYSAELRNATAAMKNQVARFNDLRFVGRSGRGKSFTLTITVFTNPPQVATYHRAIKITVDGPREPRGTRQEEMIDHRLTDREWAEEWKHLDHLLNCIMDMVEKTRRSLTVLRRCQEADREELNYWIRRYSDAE
T1 sequence (Q01196+P11274 fused): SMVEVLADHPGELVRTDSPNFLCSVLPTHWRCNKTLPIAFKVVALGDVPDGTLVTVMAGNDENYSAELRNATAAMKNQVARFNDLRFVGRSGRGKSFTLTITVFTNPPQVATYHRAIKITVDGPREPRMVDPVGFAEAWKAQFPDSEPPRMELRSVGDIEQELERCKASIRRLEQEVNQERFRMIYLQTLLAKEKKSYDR

Compound | IC50 (RUNX1-NHR2 protein [4]) | inhibition at 1000 µM (RUNX1-BCR protein [1]; [6]) | inhibition at 1000 µM (RUNX1-NHR2 protein [4]; [7]) | inhibition at 2000 µM (RUNX1-BCR protein [1]; RUNX1-BCR) | inhibition at 1000 µM (RUNX1-BCR protein [2]; [6]) | inhibition at 1000 µM (RUNX1-NHR2 protein [3]; [7]) | inhibition at 2000 µM (RUNX1-NHR2 protein [4]; RUNX1-NHR2 protein) | inhibition of NHR2 tetramerization (reduction of BS3 cross-linked NHR2 oligomers) (NHR2 protein) | further results
COc1ccc(-c2ccc(CCC(=O)O)n2CCC(=O)O)cc1 [Compound 5.8, 3,3′-(5-(4-methoxyphenyl)-1H-pyrrole-1,2-diyl)dipropanoic acid] | – | – | – | – | – | – | – | – | inhibition at 1000 µM (RUNX1-BCR protein [1]): 12%; inhibition at 1000 µM (RUNX1-BCR protein [2]): 56.1%; inhibition at 1000 µM (RUNX1-NHR2 protein [3]): 68.2%; inhibition at 1000 µM (RUNX1-NHR2 protein [4]): 70.3%
O=C(CSc1nc2ccccc2[nH]1)Nc1ccc(Cl)c(C(=O)O)c1 [Compound 5.4, 5-(2-(1H-benzo[d]imidazol-2-ylthio)acetamido)-2-chlorobenzoic acid] | – | 35.4% | 89.7% | – | -3.3% | 63.9% | – | – | –

Second part, led by results:

IC50 (RUNX1-NHR2 protein [4]) | inhibition at 1000 µM (RUNX1-BCR protein [1]; [6]) | inhibition at 1000 µM (RUNX1-NHR2 protein [4]; [7]) | inhibition at 2000 µM (RUNX1-BCR protein [1]; RUNX1-BCR) | inhibition at 1000 µM (RUNX1-BCR protein [2]; [6]) | inhibition at 1000 µM (RUNX1-NHR2 protein [3]; [7]) | inhibition at 2000 µM (RUNX1-NHR2 protein [4]; RUNX1-NHR2 protein) | Compound | inhibition of NHR2 tetramerization (reduction of BS3 cross-linked NHR2 oligomers) (NHR2 protein) | further results
> 2000 µM | – | – | – | – | – | – | Ac-VARRCAEAAREALNYAIR-NH2 [P3, reference compound] | neither P2, P3 nor the unrelated peptide CP inhibit NHR2 tetramerization | –
460 µM | 9.2% | 42.8% | – | – | – | – | Ac-VLRRCQEADREELNYWIR-NH2 [P1, reference compound] | inhibit NHR2 tetramerization | inhibition of binding of the RUNX1-BCR protein, ELISA (RUNX1-BCR protein [1]; [5]): is not inhibited; dose dependence of inhibition of NHR2 tetramerization (cross-linking) (NHR2 protein): dose-dependent; IC50 (NHR2 protein; read-out: IC50 of inhibition of NHR2 tetramerization (cross-linking)): 250 µM; inhibition of binding of the RUNX1-BCR protein, ABCD (RUNX1-BCR protein [2]; c=1100 μM in ABCD assay): is not inhibited; inhibition of tetramer-dependent binding of the RUNX1-NHR2 protein to immobilized RUNX3 oligonucleotide, ABCD (RUNX1-NHR2 protein [3]; c=1100 μM in ABCD assay): selectively inhibit; inhibition of tetramer-dependent binding of the RUNX1-NHR2 protein to immobilized RUNX3 oligonucleotide, ELISA (RUNX1-NHR2 protein [4]; [5]): selectively inhibit
– | – | – | 31.5% | 28.5% | 57.7% | 94.4% | Cc1ccc(OCC(=O)O)c(OCC(=O)O)c1 [Compound 7.3, 2-[2-(carboxymethyloxy)-4-methyl-phenoxy]acetic acid] | – | –
– | – | – | 10% | 6.1% | 47.4% | 71.6% | O=C(O)COc1cccc(OCC(=O)O)c1 [Compound 7.4, 2,2′-(1,3-phenylenebis(oxy))diacetic acid] | – | –
